Experiments:
Format in all cases: cell-based
human Nav1.7 (hNav1.7) [1] = biological target: T1, human Nav1.7 (hNav1.7) (Homo sapiens, UniProt Q15858); assay: hNav1.7 slow inactivation block, manual patchclamp; conditions: HEK 293F cells stably expressing hNav1.7, slow inactivation induced in approximately 50% of channels
T1 construct: expressed in transfected cells
Description: (§1) The generation of HEK 293F cell lines stably expressing human Nav1.7 (h Nav1.7), human Nav1.5 (hNav1.5) and rat Nav1.2 (r Nav1.2) was achieved by subcloning SCN9A, SCN5A, and SCN2A genes into inducible expression vectors followed by transfection into target cells using standard techniques. In the case of h Nav1.7, an expression vector encoding the human Navβ1 auxiliary subunit gene, SCN1B, was co-transfected with the expression vector bearing the SCN9A gene. Clones were selected using appropriate selection agents (0.3 mg/mL Zeocin and 0.8 mg/mL Geneticin) and maintained in Dulbecco's Modified Eagle medium, 10% fetal bovine serum, 1% non-essential amino acids to ˜80% confluence at 37° C. in a humidified incubator with 95% atmosphere and 5% CO2.
(§2) On the day of each experiment, cells that were grown to 80% confluence in a T75 flask were harvested for use on PatchXpress (Molecular Devices, CA, USA). Following a recovery period at 37° C. in a humidified incubator with 95% atmosphere and 5% CO2 in Dulbecco's Modified Eagle Medium, the media was replaced with an external recording solution containing (in mM): 90 TEACl, 50 NaCl, 1.8 CaCl2, 1 MgCl2, 10 HEPES, 10 glucose, adjusted to pH 7.4 with TEAOH and 300 mOsm with sucrose. The internal recording solution contained (in mM): 129 CsF, 2 MgCl2, 11 EGTA, 10 HEPES, 6 NaCl, 3 Na2ATP adjusted to pH 7.2 with CsOH and 280 mOsm with sucrose. The automated liquid handling facility of PatchXpress dispensed cells and added compound. Modulation of Nav1.7 channels by compounds was assessed by promoting the channels into the inactivated state using a conditioning voltage pulse of variable amplitude, followed by a brief hyperpolarizing pulse with a subsequent depolarized voltage step to measure the current amplitude in the presence and absence of compound.
(§3) In some cases, the potency of compounds was measured using either the Patchliner automated patch clamp platform (Nanion) or manual patch clamp techniques. Both approaches allowed the compounds to be characterized based upon the ability of a compound to modulate use- and/or state-dependence across human Nav1.7 (hNav1.7), human Nav1.5 (hNav1.5) and rat Nav1.2 (rNav1.2). The potency data is tabulated in Table 2 and is represented by six data fields. Three of the six fields represent potency data measured with the Patchliner automated platform under varying use- and state-dependent electrophysiology protocols similar to the PatchXpress protocols detailed above. For example, the second data column describes the potency of compounds in their ability to block 50% of Nav1.7 channels when the channel is repetitively activated by depolarizing voltage potentials to induce slow inactivation in approximately 50% of channels (Table 2: h Nav1.7: IC50 Slow Inactivation Block, Automated Patchclamp). The next three data fields describe the data generated from manual patchclamp electrophysiology measurements using similar methods to those employed for automated patchclamp studies.

human Nav1.5 (hNav1.5) [2] = biological target: T2, human Nav1.5 (hNav1.5) (Homo sapiens, UniProt Q14524); assay: hNav1.5 slow inactivation block, automated patchclamp; conditions: HEK 293F cells stably expressing hNav1.5
T2 construct: expressed in transfected cells
Description: as §1
Inhibition of the TTX-resistant Nav1.5 sodium channel, a key cardiac ion channel, can have profound effects on the duration and amplitude of the cardiac action potential and can result in arrhythmias and other heart malfunctions. To assess the potential cardiac liability of compounds at an early stage in the drug discovery process, a Nav1.5 sodium channel screening assay can be performed on Molecular Device's PatchXpress™ automated electrophysiology platform. Under voltage-clamp conditions, Nav1.5 currents can be recorded from HEK cells expressing the human Nav1.5 channel in the absence and presence of increasing concentrations of the test compound to obtain an IC50 value. The external recording solution can contain (in mM): 90 TEACl, 50 NaCl, 1.8 CaCl, 1 MgCl2, 10 HEPES, 10 glucose, adjusted to pH 7.4 with TEA-OH and to 300 mOsm with sucrose (if necessary), while the internal patch pipette solution contained (in mM): 129 CsF, 2 MgCl2, 11 EGTA, 10 HEPES, 3 Na2ATP adjusted to pH 7.2 with CsOH and to 290 mOsm with sucrose (if necessary). Nav1.5 channel currents can be evoked using a cardiac action potential waveform at 1 Hz, digitized at 31.25 kHz and low-pass filtered at 12 kHz.
as §2
In some cases, the potency of compounds was measured using either the Patchliner automated patch clamp platform (Nanion) or manual patch clamp techniques. Both approaches allowed the compounds to be characterized based upon the ability of a compound to modulate use- and/or state-dependence across human Nav1.7 (hNav1.7), human Nav1.5 (hNav1.5) and rat Nav1.2 (rNav1.2). The potency data is tabulated in Table 2 and is represented by six data fields. Three of the six fields represent potency data measured with the Patchliner automated platform under varying use- and state-dependent electrophysiology protocols similar to the PatchXpress protocols detailed above. […]

human Nav1.7 (hNav1.7) [3] = biological target: T1, human Nav1.7 (hNav1.7); assay: hNav1.7 slow inactivation block, automated patchclamp; conditions: HEK 293F cells stably expressing hNav1.7, slow inactivation induced in approximately 50% of channels
Description: as §1, §2, §3

human Nav1.5 (hNav1.5) [4] = biological target: T2, human Nav1.5 (hNav1.5); assay: hNav1.5 slow inactivation block, manual patchclamp; conditions: HEK 293F cells stably expressing hNav1.5
Description: as §1, with “CO2. […]” for “CO2.”
as §2, §3

rat Nav1.2 (rNav1.2) [5] = biological target: T3, rat Nav1.2 (rNav1.2) (Rattus norvegicus, UniProt P04775); assay: rNav1.2 slow inactivation block, automated patchclamp; conditions: HEK 293F cells stably expressing rNav1.2
T3 construct: expressed in transfected cells
Description: as §1, §2, §3

rat Nav1.2 (rNav1.2) [6] = biological target: T3, rat Nav1.2 (rNav1.2); assay: rNav1.2 slow inactivation block, manual patchclamp; conditions: HEK 293F cells stably expressing rNav1.2
Description: as §1, §2, §3

T1 sequence (Q15858 whole entry): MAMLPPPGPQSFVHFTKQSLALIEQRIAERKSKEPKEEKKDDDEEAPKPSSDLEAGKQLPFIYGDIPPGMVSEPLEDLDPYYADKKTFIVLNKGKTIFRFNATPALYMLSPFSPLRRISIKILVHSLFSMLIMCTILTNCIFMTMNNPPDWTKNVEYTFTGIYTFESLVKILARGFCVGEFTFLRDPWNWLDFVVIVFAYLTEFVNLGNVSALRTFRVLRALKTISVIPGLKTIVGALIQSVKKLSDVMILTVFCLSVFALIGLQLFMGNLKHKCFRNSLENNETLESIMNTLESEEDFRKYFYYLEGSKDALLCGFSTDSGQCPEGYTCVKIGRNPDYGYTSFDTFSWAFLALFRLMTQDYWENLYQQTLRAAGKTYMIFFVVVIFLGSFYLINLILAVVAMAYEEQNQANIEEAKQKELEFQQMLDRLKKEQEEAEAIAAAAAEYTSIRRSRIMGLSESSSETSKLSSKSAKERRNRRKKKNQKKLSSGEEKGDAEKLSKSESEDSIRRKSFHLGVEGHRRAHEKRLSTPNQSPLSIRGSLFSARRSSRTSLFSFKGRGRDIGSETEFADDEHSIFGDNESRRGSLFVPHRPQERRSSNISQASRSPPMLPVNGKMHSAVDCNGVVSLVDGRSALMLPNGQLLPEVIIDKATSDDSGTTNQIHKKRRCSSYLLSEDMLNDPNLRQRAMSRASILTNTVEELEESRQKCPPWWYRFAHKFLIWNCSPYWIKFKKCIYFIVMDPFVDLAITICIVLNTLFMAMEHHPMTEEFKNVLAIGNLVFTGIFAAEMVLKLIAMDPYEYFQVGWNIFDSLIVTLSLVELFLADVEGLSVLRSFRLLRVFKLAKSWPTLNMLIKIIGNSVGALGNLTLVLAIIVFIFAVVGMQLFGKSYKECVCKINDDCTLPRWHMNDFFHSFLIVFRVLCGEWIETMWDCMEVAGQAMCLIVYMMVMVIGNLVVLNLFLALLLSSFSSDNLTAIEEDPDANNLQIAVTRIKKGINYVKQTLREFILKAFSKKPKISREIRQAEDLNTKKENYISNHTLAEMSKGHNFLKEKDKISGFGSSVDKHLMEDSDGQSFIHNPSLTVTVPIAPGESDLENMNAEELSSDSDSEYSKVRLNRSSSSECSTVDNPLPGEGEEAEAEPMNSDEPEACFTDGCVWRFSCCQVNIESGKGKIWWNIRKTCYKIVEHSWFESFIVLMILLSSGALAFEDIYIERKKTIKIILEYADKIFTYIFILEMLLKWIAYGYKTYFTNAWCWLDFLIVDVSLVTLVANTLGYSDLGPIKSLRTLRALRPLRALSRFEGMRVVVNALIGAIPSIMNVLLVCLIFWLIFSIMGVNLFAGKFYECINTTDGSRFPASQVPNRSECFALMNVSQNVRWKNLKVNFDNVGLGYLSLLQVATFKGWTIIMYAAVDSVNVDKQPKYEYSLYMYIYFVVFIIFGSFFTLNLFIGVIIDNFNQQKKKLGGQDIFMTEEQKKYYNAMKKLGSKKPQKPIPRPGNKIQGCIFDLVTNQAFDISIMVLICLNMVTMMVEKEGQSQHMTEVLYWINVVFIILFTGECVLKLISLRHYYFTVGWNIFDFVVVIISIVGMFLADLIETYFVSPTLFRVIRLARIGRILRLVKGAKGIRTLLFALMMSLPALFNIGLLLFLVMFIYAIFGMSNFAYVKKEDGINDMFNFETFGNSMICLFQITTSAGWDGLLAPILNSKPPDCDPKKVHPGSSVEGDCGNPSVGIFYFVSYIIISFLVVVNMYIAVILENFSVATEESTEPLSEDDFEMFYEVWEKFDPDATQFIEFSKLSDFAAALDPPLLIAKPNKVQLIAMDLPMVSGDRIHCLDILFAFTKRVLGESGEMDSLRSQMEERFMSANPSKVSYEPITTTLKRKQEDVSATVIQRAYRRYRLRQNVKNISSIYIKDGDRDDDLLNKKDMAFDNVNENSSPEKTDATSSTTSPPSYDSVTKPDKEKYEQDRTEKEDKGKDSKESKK
T1 sequence (Q07699 19-218 partner): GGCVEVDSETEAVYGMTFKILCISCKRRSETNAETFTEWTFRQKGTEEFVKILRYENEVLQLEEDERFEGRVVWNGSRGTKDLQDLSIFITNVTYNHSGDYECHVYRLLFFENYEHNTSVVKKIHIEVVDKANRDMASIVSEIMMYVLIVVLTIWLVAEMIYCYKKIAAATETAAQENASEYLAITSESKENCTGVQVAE
T3 sequence (P04775 whole entry): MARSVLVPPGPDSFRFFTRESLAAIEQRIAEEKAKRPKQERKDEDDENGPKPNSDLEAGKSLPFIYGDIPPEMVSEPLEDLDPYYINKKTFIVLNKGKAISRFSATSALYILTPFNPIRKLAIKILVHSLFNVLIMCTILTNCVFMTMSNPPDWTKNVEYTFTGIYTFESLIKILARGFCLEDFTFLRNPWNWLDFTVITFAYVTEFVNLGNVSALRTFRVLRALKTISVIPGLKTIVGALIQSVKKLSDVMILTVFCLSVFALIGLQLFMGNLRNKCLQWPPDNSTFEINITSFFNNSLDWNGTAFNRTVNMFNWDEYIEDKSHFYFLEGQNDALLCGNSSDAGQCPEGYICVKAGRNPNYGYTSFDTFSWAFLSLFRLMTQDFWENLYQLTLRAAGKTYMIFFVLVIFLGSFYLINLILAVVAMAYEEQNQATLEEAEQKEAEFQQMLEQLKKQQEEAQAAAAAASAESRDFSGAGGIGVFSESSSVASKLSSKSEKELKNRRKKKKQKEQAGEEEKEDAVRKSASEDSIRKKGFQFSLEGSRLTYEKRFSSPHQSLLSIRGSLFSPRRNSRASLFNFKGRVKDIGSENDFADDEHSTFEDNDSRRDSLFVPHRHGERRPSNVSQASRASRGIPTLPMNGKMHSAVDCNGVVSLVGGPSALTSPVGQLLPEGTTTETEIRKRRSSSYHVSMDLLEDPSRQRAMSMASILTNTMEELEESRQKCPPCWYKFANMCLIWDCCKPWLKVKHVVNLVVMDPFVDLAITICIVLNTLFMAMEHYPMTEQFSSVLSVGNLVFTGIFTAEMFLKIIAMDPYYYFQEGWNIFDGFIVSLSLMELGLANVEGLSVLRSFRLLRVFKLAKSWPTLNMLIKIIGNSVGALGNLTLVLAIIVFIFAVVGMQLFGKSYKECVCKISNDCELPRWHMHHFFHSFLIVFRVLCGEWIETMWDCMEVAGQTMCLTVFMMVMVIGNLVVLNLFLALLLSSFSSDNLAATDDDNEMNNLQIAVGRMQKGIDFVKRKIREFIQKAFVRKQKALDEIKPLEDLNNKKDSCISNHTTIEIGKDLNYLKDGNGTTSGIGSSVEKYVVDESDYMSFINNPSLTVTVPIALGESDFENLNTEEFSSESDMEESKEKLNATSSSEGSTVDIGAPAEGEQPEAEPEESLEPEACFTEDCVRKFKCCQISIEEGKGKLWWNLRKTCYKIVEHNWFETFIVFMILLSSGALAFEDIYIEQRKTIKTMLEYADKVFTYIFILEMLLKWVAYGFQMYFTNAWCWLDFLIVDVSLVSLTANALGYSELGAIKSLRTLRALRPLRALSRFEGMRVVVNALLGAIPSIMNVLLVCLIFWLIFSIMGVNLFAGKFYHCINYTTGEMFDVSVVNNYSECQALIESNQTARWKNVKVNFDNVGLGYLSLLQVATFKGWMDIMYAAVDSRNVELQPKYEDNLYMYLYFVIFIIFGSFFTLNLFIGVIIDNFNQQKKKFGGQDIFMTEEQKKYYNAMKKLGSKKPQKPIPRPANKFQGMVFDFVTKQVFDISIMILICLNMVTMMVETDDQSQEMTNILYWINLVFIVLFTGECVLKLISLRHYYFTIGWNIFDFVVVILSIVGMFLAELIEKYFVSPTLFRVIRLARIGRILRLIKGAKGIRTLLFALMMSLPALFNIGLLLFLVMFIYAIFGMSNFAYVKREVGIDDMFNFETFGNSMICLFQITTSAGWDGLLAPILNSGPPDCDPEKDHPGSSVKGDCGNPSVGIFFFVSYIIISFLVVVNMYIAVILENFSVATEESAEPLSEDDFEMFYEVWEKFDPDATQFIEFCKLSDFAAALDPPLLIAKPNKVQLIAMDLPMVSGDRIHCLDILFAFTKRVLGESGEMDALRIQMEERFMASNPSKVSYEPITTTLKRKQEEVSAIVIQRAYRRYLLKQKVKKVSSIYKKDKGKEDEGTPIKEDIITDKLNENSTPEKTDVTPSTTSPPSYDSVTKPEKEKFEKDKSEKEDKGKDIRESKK

## N#Cc1cc(Oc2cc(C(F)(F)F)cc(C(F)(F)F)c2)ccc1S(=O)(=O)Nc1nncs1 [Example 43, 4-[3,5-bis(trifluoromethyl)phenoxy]-2-cyano-N-(1,3,4-thiadiazol-2-yl)benzene-1-sulfonamide]
Human Nav1.7 (hNav1.7) [1]
  IC50: > 10000 nM
Human Nav1.5 (hNav1.5) [2]
  IC50: > 32000 nM
Human Nav1.7 (hNav1.7) [3]
  IC50: > 32000 nM

## COc1cc(Oc2cc(F)c(S(=O)(=O)Nc3nc(C)ns3)cc2F)cc(C(F)(F)F)c1 [Compound 40, 2,5-difluoro-4-[3-methoxy-5-(trifluoromethyl)phenoxy]-N-(3-methyl-1,2,4-thiadiazol-5-yl)benzene-1-sulfonamide]
Human Nav1.7 (hNav1.7) [1]
  IC50: > 3200 nM
Human Nav1.5 (hNav1.5) [2]
  IC50: > 32000 nM
Human Nav1.7 (hNav1.7) [3]
  IC50: > 32000 nM

## COc1cc(Oc2cc(F)c(S(=O)(=O)Nc3nc(CN4CCOCC4)ns3)cc2F)cc(C(F)(F)F)c1 [Compound 45, 2,5-difluoro-4-[3-methoxy-5-(trifluoromethyl)phenoxy]-N-[3-(morpholin-4-ylmethyl)-1,2,4-thiadiazol-5-yl]benzene-1-sulfonamide]
Human Nav1.7 (hNav1.7) [1]
  IC50: > 10000 nM
Human Nav1.5 (hNav1.5) [2]
  IC50: > 32000 nM
Human Nav1.7 (hNav1.7) [3]
  IC50: > 32000 nM

## O=S(=O)(Nc1ncns1)c1cc(F)c(Oc2cc(C3CNC3)cc(C(F)(F)F)c2)cc1F [Compound 31, 4-(3-(azetidin-3-yl)-5-(trifluoromethyl)phenoxy)-2,5-difluoro-N-(1,2,4-thiadiazol-5-yl)benzenesulfonamide]
Human Nav1.5 (hNav1.5) [4]
  IC50: ~1460 nM
Rat Nav1.2 (rNav1.2) [5]
  IC50: ~1220 nM
Human Nav1.7 (hNav1.7) [1]
  IC50: 286 nM
Human Nav1.7 (hNav1.7) [3]
  IC50: 750 nM
Rat Nav1.2 (rNav1.2) [6]
  IC50: 387 nM

## O=C(NCc1cc(F)c(Oc2cc(C(F)(F)F)cc(C(F)(F)F)c2)cc1F)c1ncns1 [Compound 17, N-({4-[3,5-bis(trifluoromethyl)phenoxy]-2,5-difluorophenyl}methyl)-1,2,4-thiadiazole-5-carboxamide]
Human Nav1.5 (hNav1.5) [4]
  IC50: ~2500 nM
Rat Nav1.2 (rNav1.2) [5]
  IC50: 18700 nM
Human Nav1.7 (hNav1.7) [1]
  IC50: 470 nM
Human Nav1.7 (hNav1.7) [3]
  IC50: 8430 nM
Rat Nav1.2 (rNav1.2) [6]
  IC50: 479 nM

## O=C(NCc1cccc(-c2cc(C(F)(F)F)cc(C(F)(F)F)c2)c1)C1CCCC1 [Compound 56, N-({3-[3,5-bis(trifluoromethyl)phenyl]phenyl}methyl)cyclopentanecarboxamide]
Human Nav1.5 (hNav1.5) [4]
  IC50: 462 nM
Rat Nav1.2 (rNav1.2) [5]
  IC50: 5850 nM
Human Nav1.7 (hNav1.7) [1]
  IC50: 173 nM
Human Nav1.7 (hNav1.7) [3]
  IC50: 712 nM
Rat Nav1.2 (rNav1.2) [6]
  IC50: 219 nM

## O=S(=O)(Nc1ncns1)c1cc(F)c(Oc2cc(N3CC(O)C3)cc(C(F)(F)F)c2)cc1F [Compound 49, 2,5-difluoro-4-[3-(3-hydroxyazetidin-1-yl)-5-(trifluoromethyl)phenoxy]-N-(1,2,4-thiadiazol-5-yl)benzenesulfonamide]
Human Nav1.5 (hNav1.5) [4]
  IC50: 1600 nM
Human Nav1.7 (hNav1.7) [1]
  IC50: 404 nM
Human Nav1.5 (hNav1.5) [2]
  IC50: ~17200 nM
Human Nav1.7 (hNav1.7) [3]
  IC50: ~7680 nM

## O=C(NCc1cc(F)c(Oc2cc(C(F)(F)F)cc(C(F)(F)F)c2)cc1F)[C@@H]1CCCN1 [Compound 4, (2S)-N-({4-[3,5-bis(trifluoromethyl)phenoxy]-2,5-difluorophenyl}methyl)pyrrolidine-2-carboxamide]
Human Nav1.5 (hNav1.5) [4]
  IC50: 116 nM
Rat Nav1.2 (rNav1.2) [5]
  IC50: 1870 nM
Human Nav1.7 (hNav1.7) [1]
  IC50: 217 nM
Human Nav1.7 (hNav1.7) [3]
  IC50: 977 nM
Rat Nav1.2 (rNav1.2) [6]
  IC50: 146 nM

## COc1cc(Oc2cc(F)c(S(=O)(=O)Nc3nc(Cc4ccccc4)ns3)cc2F)cc(C(F)(F)F)c1 [Compound 41, N-(3-benzyl-1,2,4-thiadiazol-5-yl)-2,5-difluoro-4-[3-methoxy-5-(trifluoromethyl)phenoxy]benzene-1-sulfonamide]
Human Nav1.7 (hNav1.7) [1]
  IC50: > 3200 nM
Human Nav1.5 (hNav1.5) [2]
  IC50: > 32000 nM
Human Nav1.7 (hNav1.7) [3]
  IC50: > 32000 nM

## O=S(=O)(Nc1ncns1)c1cc(F)c(Oc2cc(N3CCC3)cc(C(F)(F)F)c2)cc1F [Compound 48, 4-[3-(azetidin-1-yl)-5-(trifluoromethyl)phenoxy]-2,5-difluoro-N-(1,2,4-thiadiazol-5-yl)benzenesulfonamide]
Human Nav1.5 (hNav1.5) [4]
  IC50: ~650 nM
Human Nav1.7 (hNav1.7) [1]
  IC50: 142 nM
Human Nav1.5 (hNav1.5) [2]
  IC50: ~6660 nM
Human Nav1.7 (hNav1.7) [3]
  IC50: ~3060 nM

## O=C(NCc1cccc(-c2cc(C(F)(F)F)cc(C(F)(F)F)c2)c1)[C@@H]1C[C@H](F)CN1 [Compound 52, (2S,4S)-N-((3′,5′-bis(trifluoromethyl)-[1,1′-biphenyl]-3-yl)methyl)-4-fluoropyrrolidine-2-carboxamide]
Human Nav1.5 (hNav1.5) [4]
  IC50: 1040 nM
Rat Nav1.2 (rNav1.2) [5]
  IC50: 5540 nM
Human Nav1.7 (hNav1.7) [1]
  IC50: 466 nM
Human Nav1.5 (hNav1.5) [2]
  IC50: 4050 nM
Human Nav1.7 (hNav1.7) [3]
  IC50: 4440 nM
Rat Nav1.2 (rNav1.2) [6]
  IC50: 928 nM

## O=S(=O)(Nc1ncns1)c1cc(F)c(Oc2cc(F)cc(Cl)c2)cc1F [Compound 29, 4-(3-chloro-5-fluorophenoxy)-2,5-difluoro-N-(1,2,4-thiadiazol-5-yl)benzene-1-sulfonamide]
Human Nav1.5 (hNav1.5) [4]
  IC50: ~7570 nM
Rat Nav1.2 (rNav1.2) [5]
  IC50: > 32000 nM
Human Nav1.7 (hNav1.7) [1]
  IC50: 678 nM
Human Nav1.7 (hNav1.7) [3]
  IC50: 14600 nM
Rat Nav1.2 (rNav1.2) [6]
  IC50: > 32000 nM

— patent US11236078B2, “Heterocyclic inhibitors of the sodium channel” (priority 2014, dated 2022)
